Source: patent publication US20230365592A1 (Agios Pharmaceuticals, Inc., priority 2022, published 2023)

The molecules below were run against T1, human PAH with the R408W mutation (Homo sapiens, UniProt P00439, R408W) (assay: Cell Based Phenylalanine Flux Assay). Conditions: A375 cells expressing human R408W PAH; 24 hrs compound incubation; 13C-Tyrosine by LC-MS; average where tested multiple times; read-out: AC50.
T1 construct: expressed in transfected cells
T1 sequence (P00439 1-452 R408W): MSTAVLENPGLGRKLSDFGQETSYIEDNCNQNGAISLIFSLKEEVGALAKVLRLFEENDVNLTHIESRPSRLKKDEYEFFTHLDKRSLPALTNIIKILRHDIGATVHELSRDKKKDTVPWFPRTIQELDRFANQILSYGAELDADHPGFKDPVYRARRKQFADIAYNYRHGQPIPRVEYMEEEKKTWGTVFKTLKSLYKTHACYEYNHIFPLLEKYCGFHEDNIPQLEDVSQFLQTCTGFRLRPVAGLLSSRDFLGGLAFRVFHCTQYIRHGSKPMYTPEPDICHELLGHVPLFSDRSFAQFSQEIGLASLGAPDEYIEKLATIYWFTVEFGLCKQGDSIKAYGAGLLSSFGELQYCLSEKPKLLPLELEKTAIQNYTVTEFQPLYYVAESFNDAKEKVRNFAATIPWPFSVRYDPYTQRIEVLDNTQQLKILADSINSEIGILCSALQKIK
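Note: after compound treatment, cells received sepiapterin plus isotope-labelled Phenylalanine for 4 hours, then labelled Tyrosine in the medium was quantified, 10-point 2-fold dilution series run in duplicate.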

Compound	AC50 [nM]
CCOc1cccc2cc([C@H]3c4nc[nH]c4CCN3C(=O)c3ocnc3C(F)F)nn12 [Example 1241, (R)-(4-(difluoromethyl)oxazol-5-yl)(4-(7-ethoxypyrazolo[1,5-a]pyridin-2-yl)-6,7-dihydro-1H-imidazo[4,5-c]pyridin-5(4H)-yl)methanone]	1000 to 5000
CCOc1cccc2cc([C@@H]3c4nc[nH]c4CCN3C(=O)c3nnc(C(C)(C)F)o3)nn12 [Example 1242, (S)-(4-(7-ethoxypyrazolo[1,5-a]pyridin-2-yl)-6,7-dihydro-1H-imidazo[4,5-c]pyridin-5(4H)-yl)(5-(2-fluoropropan-2-yl)-1,3,4-oxadiazol-2-yl)methanone]	1000 to 5000
CCOc1cccc2cc([C@H]3c4nc[nH]c4CCN3C(=O)c3nnc(C(C)(C)F)o3)nn12 [Example 1243, (R)-(4-(7-ethoxypyrazolo[1,5-a]pyridin-2-yl)-6,7-dihydro-1H-imidazo[4,5-c]pyridin-5(4H)-yl)(5-(2-fluoropropan-2-yl)-1,3,4-oxadiazol-2-yl)methanone]	1000 to 5000
CCOc1cccc2cc([C@H]3c4nc[nH]c4CCN3C(=O)c3oc(C(C)(C)O)nc3C(F)F)nn12 [Example 1244, (R)-(4-(difluoromethyl)-2-(2-hydroxypropan-2-yl)oxazol-5-yl)(4-(7-ethoxypyrazolo[1,5-a]pyridin-2-yl)-6,7-dihydro-1H-imidazo[4,5-c]pyridin-5(4H)-yl)methanone]	1000 to 5000
CC(C)(C)c1nnc(C(=O)N2CCc3[nH]cnc3[C@@H]2c2cc3cccc(F)n3n2)o1 [Example 1248, (R)-(5-(tert-butyl)-1,3,4-oxadiazol-2-yl)(4-(7-fluoropyrazolo[1,5-a]pyridin-2-yl)-6,7-dihydro-1H-imidazo[4,5-c]pyridin-5(4H)-yl)methanone]	1000 to 5000
CC(C)(C)c1nnc(C(=O)N2CCc3[nH]cnc3[C@H]2c2cc3cccc(F)n3n2)o1 [Example 1249, (S)-(5-(tert-butyl)-1,3,4-oxadiazol-2-yl)(4-(7-fluoropyrazolo[1,5-a]pyridin-2-yl)-6,7-dihydro-1H-imidazo[4,5-c]pyridin-5(4H)-yl)methanone]	< 500
CC(C)(F)c1nc(C(F)F)c(C(=O)N2CCc3[nH]cnc3[C@@H]2c2cc3ccccn3n2)o1 [Example 1254, (R)-(4-(difluoromethyl)-2-(2-fluoropropan-2-yl)oxazol-5-yl)(4-(pyrazolo[1,5-a]pyridin-2-yl)-6,7-dihydro-1H-imidazo[4,5-c]pyridin-5(4H)-yl)methanone]	1000 to 5000
CC(C)(F)c1nc(C(F)F)c(C(=O)N2CCc3[nH]cnc3[C@H]2c2cc3ccccn3n2)o1 [Example 1255, (S)-(4-(difluoromethyl)-2-(2-fluoropropan-2-yl)oxazol-5-yl)(4-(pyrazolo[1,5-a]pyridin-2-yl)-6,7-dihydro-1H-imidazo[4,5-c]pyridin-5(4H)-yl)methanone]	< 500
O=C(c1nnc(-c2ccncn2)o1)N1CCc2[nH]cnc2[C@@H]1c1cc2c(F)cccn2n1 [Example 1259, (R)-(4-(4-fluoropyrazolo[1,5-a]pyridin-2-yl)-6,7-dihydro-1H-imidazo[4,5-c]pyridin-5(4H)-yl)(5-(pyrimidin-4-yl)-1,3,4-oxadiazol-2-yl)methanone]	1000 to 5000
Cc1nc(C(C)(C)F)oc1C(=O)N1CCc2[nH]cnc2[C@H]1c1cc2c(C)cccn2n1 [Example 1260, (S)-(2-(2-fluoropropan-2-yl)-4-methyloxazol-5-yl)(4-(4-methylpyrazolo[1,5-a]pyridin-2-yl)-6,7-dihydro-1H-imidazo[4,5-c]pyridin-5(4H)-yl)methanone]	< 500
Cc1nc(C(C)(C)F)oc1C(=O)N1CCc2[nH]cnc2[C@H]1c1cc2c(C(F)(F)F)cccn2n1 [Example 1262, (S)-(2-(2-fluoropropan-2-yl)-4-methyloxazol-5-yl)(4-(4-(trifluoromethyl)pyrazolo[1,5-a]pyridin-2-yl)-6,7-dihydro-1H-imidazo[4,5-c]pyridin-5(4H)-yl)methanone]	< 500
O=C(c1oc(C2(O)CC2)nc1C(F)F)N1CCc2[nH]cnc2[C@H]1c1cc2cccc(C(F)(F)F)n2n1 [Example 1268, (S)-(4-(difluoromethyl)-2-(1-hydroxycyclopropyl)oxazol-5-yl)(4-(7-(trifluoromethyl)pyrazolo[1,5-a]pyridin-2-yl)-6,7-dihydro-1H-imidazo[4,5-c]pyridin-5(4H)-yl)methanone]	< 500
O=C(c1cnn2ccccc12)N1CCc2[nH]cnc2[C@H]1c1cc2c(C(F)(F)F)cccn2n1 [Example 1270, (S)-pyrazolo[1,5-a]pyridin-3-yl(4-(4-(trifluoromethyl)pyrazolo[1,5-a]pyridin-2-yl)-6,7-dihydro-1H-imidazo[4,5-c]pyridin-5(4H)-yl)methanone]	< 500
O=C(c1cnn2ccccc12)N1CCc2[nH]cnc2[C@H]1c1cc2c(Cl)cccn2n1 [Example 1272, (S)-(4-(4-chloropyrazolo[1,5-a]pyridin-2-yl)-6,7-dihydro-1H-imidazo[4,5-c]pyridin-5(4H)-yl)(pyrazolo[1,5-a]pyridin-3-yl)methanone]	< 500
Cc1nc(C(C)(C)F)oc1C(=O)N1CCc2[nH]cnc2[C@@H]1c1cc2c(F)cccn2n1 [Example 1274, (R)-(2-(2-fluoropropan-2-yl)-4-methyloxazol-5-yl)(4-(4-fluoropyrazolo[1,5-a]pyridin-2-yl)-6,7-dihydro-1H-imidazo[4,5-c]pyridin-5(4H)-yl)methanone]	< 500
Cc1cccc2cc([C@H]3c4nc[nH]c4CCN3C(=O)c3oc(C4(O)CC4)nc3C(F)F)nn12 [Example 1281, (R)-(4-(difluoromethyl)-2-(1-hydroxycyclopropyl)oxazol-5-yl)(4-(7-methylpyrazolo[1,5-a]pyridin-2-yl)-6,7-dihydro-1H-imidazo[4,5-c]pyridin-5(4H)-yl)methanone]	1000 to 5000
Cc1nnc(C(=O)N2CCc3[nH]cnc3[C@H]2c2cc3c(C(F)F)cccn3n2)o1 [Example 1283, (S)-(4-(4-(difluoromethyl)pyrazolo[1,5-a]pyridin-2-yl)-6,7-dihydro-1H-imidazo[4,5-c]pyridin-5(4H)-yl)(5-methyl-1,3,4-oxadiazol-2-yl)methanone]	500 to 1000

The remaining lines, values ahead:

AC50 [nM]	Compound
< 500	Cc1nc(C(C)(C)F)oc1C(=O)N1CCc2[nH]cnc2[C@H]1c1cc2ccccn2n1 [Example 1250, (S)-(2-(2-fluoropropan-2-yl)-4-methyloxazol-5-yl)(4-(pyrazolo[1,5-a]pyridin-2-yl)-6,7-dihydro-1H-imidazo[4,5-c]pyridin-5(4H)-yl)methanone]
500 to 1000	Cc1nc(C(C)(C)F)oc1C(=O)N1CCc2[nH]cnc2[C@@H]1c1cc2ccccn2n1 [Example 1251, (R)-(2-(2-fluoropropan-2-yl)-4-methyloxazol-5-yl)(4-(pyrazolo[1,5-a]pyridin-2-yl)-6,7-dihydro-1H-imidazo[4,5-c]pyridin-5(4H)-yl)methanone]
< 500	Cc1nc(C(C)(C)F)oc1C(=O)N1CCc2[nH]cnc2[C@H]1c1cc2cccc(C)n2n1 [Example 1252, (S)-(2-(2-fluoropropan-2-yl)-4-methyloxazol-5-yl)(4-(7-methylpyrazolo[1,5-a]pyridin-2-yl)-6,7-dihydro-1H-imidazo[4,5-c]pyridin-5(4H)-yl)methanone]
1000 to 5000	Cc1nc(C(C)(C)F)oc1C(=O)N1CCc2[nH]cnc2[C@@H]1c1cc2cccc(C)n2n1 [Example 1253, (R)-(2-(2-fluoropropan-2-yl)-4-methyloxazol-5-yl)(4-(7-methylpyrazolo[1,5-a]pyridin-2-yl)-6,7-dihydro-1H-imidazo[4,5-c]pyridin-5(4H)-yl)methanone]
< 500	Cc1nc(C(C)(C)F)oc1C(=O)N1CCc2[nH]cnc2[C@H]1c1cc2cccc(Cl)n2n1 [Example 1266, (S)-(4-(7-chloropyrazolo[1,5-a]pyridin-2-yl)-6,7-dihydro-1H-imidazo[4,5-c]pyridin-5(4H)-yl)(2-(2-fluoropropan-2-yl)-4-methyloxazol-5-yl)methanone]
< 500	Cc1nc(C(C)(C)F)oc1C(=O)N1CCc2[nH]cnc2[C@H]1c1cc2c(F)cccn2n1 [Example 1275, (S)-(2-(2-fluoropropan-2-yl)-4-methyloxazol-5-yl)(4-(4-fluoropyrazolo[1,5-a]pyridin-2-yl)-6,7-dihydro-1H-imidazo[4,5-c]pyridin-5(4H)-yl)methanone]
< 500	Cc1nc(C(C)(C)F)oc1C(=O)N1CCc2[nH]cnc2[C@H]1c1cc2c(Cl)cccn2n1 [Example 1276, (S)-(4-(4-chloropyrazolo[1,5-a]pyridin-2-yl)-6,7-dihydro-1H-imidazo[4,5-c]pyridin-5(4H)-yl)(2-(2-fluoropropan-2-yl)-4-methyloxazol-5-yl)methanone]
< 500	Cc1nc(C(C)(C)F)oc1C(=O)N1CCc2[nH]cnc2[C@@H]1c1cc2c(Cl)cccn2n1 [Example 1277, (R)-(4-(4-chloropyrazolo[1,5-a]pyridin-2-yl)-6,7-dihydro-1H-imidazo[4,5-c]pyridin-5(4H)-yl)(2-(2-fluoropropan-2-yl)-4-methyloxazol-5-yl)methanone]
< 500	Cc1nc(C(C)(C)F)oc1C(=O)N1CCc2[nH]cnc2[C@H]1c1cc2cccc(F)n2n1 [Example 1278, (S)-(2-(2-fluoropropan-2-yl)-4-methyloxazol-5-yl)(4-(7-fluoropyrazolo[1,5-a]pyridin-2-yl)-6,7-dihydro-1H-imidazo[4,5-c]pyridin-5(4H)-yl)methanone]
